Patent US8735414B2 (priority 2009, dated 2014)

How the values were obtained:
[1] = tested on: bicistronic HCV replicon (replicon RNA, GenBank Accession No. AJ242654); assay: HCV Replicon Assay; assay type: cell-based; conditions: Hepatitis C virus, 72 h, read-out: Replicon IC50

| Compound | IC50 [1] [µM] | melting point [°C] |
| --- | --- | --- |
| C[C@H](NS(=O)(=O)c1ccc(-c2c(C#N)c3ccc(C#N)cc3n2C2CCCC2)nc1)C(F)(F)F [compound 470, 6-(3,6-dicyano-1-cyclopentyl-1H-indol-2-yl)-N-[(2S)-1,1,1-trifluoropropan-2-yl]pyridine-3-sulfonamide] | < 0.5 | 203 to 205 |
| CC(C)S(=O)(=O)Nc1ccc(-c2c(C#N)c3ccc(OCC(F)(F)F)cc3n2CC2CC2)nc1 [compound 283, N-{6-[3-cyano-1-(cyclopropylmethyl)-6-(2,2,2-trifluoroethoxy)-1H-indol-2-yl]pyridin-3-yl}propane-2-sulfonamide] | 2 to 5 | 188 to 193 |
| COc1ccc2c(c1)c(C#N)c(-c1ccc(S(=O)(=O)N[C@H](C)C(F)(F)F)cn1)n2C1CCC1 [compound 500, 6-(3-cyano-1-cyclobutyl-5-methoxy-1H-indol-2-yl)-N-[(2R)-1,1,1-trifluoropropan-2-yl]pyridine-3-sulfonamide] | < 0.5 | 181 to 186 |
| CC(=O)c1sccc1-n1c(-c2ccc(S(=O)(=O)N[C@@H](C)C(F)(F)F)cn2)c(C#N)c2cc(F)c(C)cc21 [compound 1055, 6-[1-(2-acetylthiophen-3-yl)-3-cyano-5-fluoro-6-methyl-1H-indol-2-yl]-N-[(2S)-1,1,1-trifluoropropan-2-yl]pyridine-3-sulfonamide] | 0.5 to 2 | 208.7 to 212.4 |
| N#Cc1c(-c2ccc(S(=O)(=O)NC(CF)CF)cn2)n(-c2ccccn2)c2cc(C3CC3)ccc12 [compound 501, 6-[3-cyano-6-cyclopropyl-1-(pyridin-2-yl)-1H-indol-2-yl]-N-(1,3-difluoropropan-2-yl)pyridine-3-sulfonamide] | < 0.5 | 210 to 213 |
| Cc1ccc2c(C#N)c(-c3ccc(S(=O)(=O)N[C@H](C)C(F)(F)F)cn3)n(C3CCCC3)c2c1 [compound 214, 6-(3-cyano-1-cyclopentyl-6-methyl-1H-indol-2-yl)-N-[(2R)-1,1,1-trifluoropropan-2-yl]pyridine-3-sulfonamide] | < 0.5 | 176 to 182 |
| N#Cc1c(-c2ccc(S(=O)(=O)NC3(C(F)(F)F)CC3)cn2)n(C2CCCC2)c2ccc(F)cc12 [compound 327, 6-(3-cyano-1-cyclopentyl-5-fluoro-1H-indol-2-yl)-N-[1-(trifluoromethyl)cyclopropyl]pyridine-3-sulfonamide] | < 0.5 | 202 to 206 |
| CC(C)c1ccc2c(C#N)c(-c3ccc(S(=O)(=O)NC(CF)CF)cn3)n(CC3CC3)c2c1 [compound 460, 6-[3-cyano-1-(cyclopropylmethyl)-6-(propan-2-yl)-1H-indol-2-yl]-N-(1,3-difluoropropan-2-yl)pyridine-3-sulfonamide] | < 0.5 | 132 to 134 |
| N#Cc1c(-c2ccc(S(=O)(=O)NC(CF)CF)cn2)n(C2CCCC2)c2cc(OC(F)(F)F)ccc12 [compound 70, 6-[3-cyano-1-cyclopentyl-6-(trifluoromethoxy)-1H-indol-2-yl]-N-(1,3-difluoropropan-2-yl)pyridine-3-sulfonamide] | < 0.5 | 141 to 143 |
| C[C@H](NS(=O)(=O)c1cnc(-c2c(C#N)c3ccc(OC(F)F)cc3n2C2CCC2)nc1)C(F)(F)F [compound 323, 2-[3-cyano-1-cyclobutyl-6-(difluoromethoxy)-1H-indol-2-yl]-N-[(2S)-1,1,1-trifluoropropan-2-yl]pyrimidine-5-sulfonamide] | < 0.5 | 221 to 223 |
| Cc1c(F)cc2c(c1F)c(C#N)c(-c1ccc(S(=O)(=O)N[C@@H](C)C(F)(F)F)cn1)n2C1CCC1 [compound 555, 6-(3-cyano-1-cyclobutyl-4,6-difluoro-5-methyl-1H-indol-2-yl)-N-[(2S)-1,1,1-trifluoropropan-2-yl]pyridine-3-sulfonamide] | < 0.5 | 181 to 186 |
| N#Cc1c(-c2ncc(S(=O)(=O)NC(CF)CF)cn2)n(C2CCCC2)c2ccc(C(F)F)cc12 [compound 536, 2-[3-cyano-1-cyclopentyl-5-(difluoromethyl)-1H-indol-2-yl]-N-(1,3-difluoropropan-2-yl)pyrimidine-5-sulfonamide] | < 0.5 | 176 to 177 |
| Cc1c(F)cc2c(C#N)c(-c3ccc(S(=O)(=O)N[C@H](C)C(F)(F)F)cn3)n(C3CCC3)c2c1F [compound 666, 6-(3-cyano-1-cyclobutyl-5,7-difluoro-6-methyl-1H-indol-2-yl)-N-[(2R)-1,1,1-trifluoropropan-2-yl]pyridine-3-sulfonamide] | < 0.5 | 185 to 190 |
| N#Cc1c(-c2ccc(S(=O)(=O)NC(CF)CF)cn2)n(-c2ncccn2)c2cc(OC(F)F)ccc12 [compound 635, 6-[3-cyano-6-(difluoromethoxy)-1-(pyrimidin-2-yl)-1H-indol-2-yl]-N-(1,3-difluoropropan-2-yl)pyridine-3-sulfonamide] | < 0.5 | 173 to 176 |
| Cc1ccc(-n2c(-c3ccc(S(=O)(=O)N[C@@H](C)C(F)(F)F)cn3)c(C#N)c3cc(F)c(C)cc32)s1 [compound 1031, 6-[3-cyano-5-fluoro-6-methyl-1-(5-methylthiophen-2-yl)-1H-indol-2-yl]-N-[(2S)-1,1,1-trifluoropropan-2-yl]pyridine-3-sulfonamide] | < 0.5 | 246.8 to 249.4 |
| N#Cc1c(-c2ccc(S(=O)(=O)NC(CF)CF)cn2)n(C2CCC2)c2cc(C3CC3)c(F)cc12 [compound 107, 6-(3-cyano-1-cyclobutyl-6-cyclopropyl-5-fluoro-1H-indol-2-yl)-N-(1,3-difluoropropan-2-yl)pyridine-3-sulfonamide] | < 0.5 | 182 to 186 |
| N#Cc1c(-c2ncc(S(=O)(=O)NC(CF)CF)cn2)n(C2CCC2)c2cc(C3CC3)ccc12 [compound 126, 2-(3-cyano-1-cyclobutyl-6-cyclopropyl-1H-indol-2-yl)-N-(1,3-difluoropropan-2-yl)pyrimidine-5-sulfonamide] | < 0.5 | 165 to 168 |
| CC(C)NS(=O)(=O)c1cnc(-c2c(C#N)c3cc(F)ccc3n2C(C)C)nc1 [compound 123, 2-[3-cyano-5-fluoro-1-(propan-2-yl)-1H-indol-2-yl]-N-(propan-2-yl)pyrimidine-5-sulfonamide] | < 0.5 | 192 to 197 |
| N#Cc1c(-c2ccc(S(=O)(=O)NC(CF)CF)cn2)n(-c2ccccc2F)c2cc(OC(F)F)ccc12 [compound 227, 6-[3-cyano-6-(difluoromethoxy)-1-(2-fluorophenyl)-1H-indol-2-yl]-N-(1,3-difluoropropan-2-yl)pyridine-3-sulfonamide] | < 0.5 | 188 to 191 |
| CCc1cc2c(cc1F)c(C#N)c(-c1ccc(S(=O)(=O)N[C@@H](C)C(F)(F)F)cn1)n2C1CCC1 [compound 640, 6-(3-cyano-1-cyclobutyl-6-ethyl-5-fluoro-1H-indol-2-yl)-N-[(2S)-1,1,1-trifluoropropan-2-yl]pyridine-3-sulfonamide] | < 0.5 | 205 to 206 |
| CC(C)NS(=O)(=O)c1ccc(-c2c(C#N)c3cc(F)ccc3n2-c2ccccn2)nc1 [compound 439, 6-[3-cyano-5-fluoro-1-(pyridin-2-yl)-1H-indol-2-yl]-N-(propan-2-yl)pyridine-3-sulfonamide] | < 0.5 | 208 to 210 |
| Cc1cc2c(C#N)c(-c3ccc(S(=O)(=O)N[C@@H](C)C(F)(F)F)cn3)n(C3CCCC3)c2cc1Cl [compound 522, 6-(6-chloro-3-cyano-1-cyclopentyl-5-methyl-1H-indol-2-yl)-N-[(2S)-1,1,1-trifluoropropan-2-yl]pyridine-3-sulfonamide] | < 0.5 | 186 to 187 |
| Cc1ccc2c(C#N)c(-c3ccc(S(=O)(=O)NC4(C(F)(F)F)CCC4)cn3)n(C3CCCC3)c2c1 [compound 253, 6-(3-cyano-1-cyclopentyl-6-methyl-1H-indol-2-yl)-N-[1-(trifluoromethyl)cyclobutyl]pyridine-3-sulfonamide] | < 0.5 | 214 to 218 |
| Cc1cc2c(cc1F)c(C#N)c(-c1ccc(S(=O)(=O)N[C@@H](C)C(F)(F)F)cn1)n2-c1ccc(C#N)s1 [compound 1033, 6-[3-cyano-1-(5-cyanothiophen-2-yl)-5-fluoro-6-methyl-1H-indol-2-yl]-N-[(2S)-1,1,1-trifluoropropan-2-yl]pyridine-3-sulfonamide] | < 0.5 | 182 to 184.6 |
| C[C@H](NS(=O)(=O)c1cnc(-c2c(C#N)c3ccc(Cl)cc3n2C2CCCC2)nc1)C(F)(F)F [compound 417, 2-(6-chloro-3-cyano-1-cyclopentyl-1H-indol-2-yl)-N-[(2S)-1,1,1-trifluoropropan-2-yl]pyrimidine-5-sulfonamide] | 0.5 to 2 | 220 to 224 |
| N#Cc1c(-c2ccc(S(=O)(=O)NC(CF)CF)cn2)n(C2CCCCC2)c2ccc(F)cc12 [compound 104, 6-(3-cyano-1-cyclohexyl-5-fluoro-1H-indol-2-yl)-N-(1,3-difluoropropan-2-yl)pyridine-3-sulfonamide] | < 0.5 | 138 to 141 |
| CCc1cc2c(cc1F)c(C#N)c(-c1ccc(S(=O)(=O)NC(C)(C)C)cn1)n2-c1ccccn1 [compound 882, N-tert-butyl-6-[3-cyano-6-ethyl-5-fluoro-1-(pyridin-2-yl)-1H-indol-2-yl]pyridine-3-sulfonamide] | < 0.5 | 200 to 205 |
| C[C@@H](NS(=O)(=O)c1ccc(-c2c(C#N)c3ccc(C(F)F)cc3n2C2CCC2)nc1)C(F)(F)F [compound 334, 6-[3-cyano-1-cyclobutyl-6-(difluoromethyl)-1H-indol-2-yl]-N-[(2R)-1,1,1-trifluoropropan-2-yl]pyridine-3-sulfonamide] | < 0.5 | 200 to 206 |
